The text below walks through data of US20190255040A1, “COMPOSITION AND METHOD FOR TOPICAL JS-K AS THERAPY FOR ACTINIC KERATOSIS” (JSK THERAPEUTICS, INC, priority 2018, published 2019).

Each structure is given as a SMILES string. A value given as a limit tells only on which side of the number the result lay.

Data set [1] concerns human squamous skin carcinoma Cells (HatCat cells). The data set is described as follows: Suppression of the growth in culture of human squamous skin carcinoma cells. The format is cell-based. Conditions: growth over a two-day period (FIG. 1), read-out: IC50 for suppressing growth of human squamous skin carcinoma cells. On the procedure:
FIG. 1 is a scatter plot illustrating the growth of human squamous skin carcinoma cells (HatCat 5K-Cells [10 μM]) over a two-day period;
Referring to FIG. 1, JS-K at 12 mg/mL in […] of acetone was active in suppressing the growth in culture of human squamous skin carcinoma Cells (HatCat cells) with IC50 concentrations <1000 nM, compared to no effect from dimethylsulfoxide (DMSO) or P1223 pluronic micellesAfd.

Data set [2] deals with UV-induced skin damage in SKH1 mice. The data set can be described thus: Animal efficacy for UV damage: UVB-exposed SKH1 mice, topical treatment, skin histology. The data set is classed as in vivo. As for the experimental part:
Eight week-old female SKH1 mice were used. There were 5 mice in the control (no treatment, no UV) group and 10 mice in each treatment group. Treated mice all received one exposure of 600 Joules/m2 of UVB.
Immediately after UVB treatment, mice in each group were treated as follows: 200 uL of acetone only; JS-K at a concentration of 12 mg/mL in 200 uL of acetone; JS-K at a concentration of 6 mg/mL in 200 uL of acetone. Treatments were started immediately after UVB exposure and given twice (8 hours apart) on Day 1 and Day 2. On Day 3, mice were sacrificed and skin collected for histologic analysis.
H&E staining was used (FIG. 2A) to evaluate the count of Sunburn Cells, which are keratinocytes undergoing UV-induced apoptosis. […] The differences with controls were statistically significant for the higher dose of JS-K (12 mg/mL).
8-OG is a marker of oxydative damage.

The IC50 is the concentration that inhibits the measured activity by half. Take `CCOC(=O)N1CCN(/[N+]([O-])=N/Oc2ccc([N+](=O)[O-])cc2[N+](=O)[O-])CC1` [JS-K, O2-(2,4-dinitrophenyl)1-[(4-ethoxycarbonyl)piperazin-1-yI]diazen-1-ium-1,2-diolate]: the IC50 in data set [1] is less than 1 µM. Also, the “count of Sunburn Cells (keratinocytes undergoing UV-induced apoptosis), H&E staining” value in data set [2] (600 Joules/m2 UVB, JS-K 6 or 12 mg/mL in 200 uL acetone topically twice daily Day 1-2, skin Day 3, significant only for 12 mg/mL) was “moderate decrease in the number of Sunburn Cells with a dose effect”. In addition, the “percent of cells positive for 8-oxoguanine (8-OG), immunohistochemistry” value in data set [2] (600 Joules/m2 UVB, JS-K 6 or 12 mg/mL in 200 uL acetone twice daily Day 1-2, dose effect, significant for both doses) is “fewer cells from the mice treated with JS-K were positive for 8-OG”. Besides, the “epidermal thickness of UV-exposed skin” value in data set [2] (600 Joules/m2 UVB, JS-K 6 or 12 mg/mL, 12 mg/mL markedly greater effect than 6 mg/mL) was “dose dependent JS-K effect on epidermal thickness”. Moreover, the “toxicity, skin irritation, skin ulceration or infection with the treatments” value in data set [2] (topical JS-K 6 or 12 mg/mL in 200 uL acetone twice daily Day 1-2) is on record as “no evidence of toxicity, skin irritation, skin ulceration, or infection”.
